Results taken from PMC11354674, “Genome Mining and Genetic Manipulation Reveal New Isofuranonaphthoquinones in Nocardia Species” (International Journal of Molecular Sciences, 2024).
Where two headings read alike, the source gives them in different places.

How the values were obtained:
ThnM3 = test system: T1, ThnM3; assay: O-methylation assay, HPLC, nonlinear Michaelis-Menten fit; assay type: biochemical, Nocardia sp. CS682; settings: 50 mM Tris, pH 8 in methods but pH 7.5 in Figure 5 legend, 5 µg ThnM3
T1 construct: methyltransferase of the tetrahydroxynaphthalene (THN) gene cluster

in vitro = assay: in vitro; set-up: species or system A549, Huh7, HeLa, U87MG; MTT colorimetric cell growth / viability assay; settings: human, hacat cells
Method: Lung cancer cells (A549), liver cancer cells (Huh7), cervical cancer cells (HeLa), brain cancer cells (U87MG), and a normal cell line (human keratinocyte cell line (HaCaT)) were acquired from the Korean Cell Line Bank (Seoul, Republic of Korea). Ten percent fetal bovine serum (FBS) was added to Dulbecco’s modified Eagle’s medium (DMEM) to culture the HeLa A549 cells. Similarly, Huh7 cells were grown in DMEM obtained from Corning Cellgro Manassas, VA, USA. Glioblastoma U87MG cells were cultured in a minimum essential medium (MEM) supplemented with 10% FBS. DMEM supplemented with 10% FBS, 100 µg/mL streptomycin, and 100 µg/mL benzylpenicillin was used to grow HaCaT cell lines. Each cell line was kept in an incubator with 5% CO2 that was humidified at 37 °C (Thermo Scientific, Vantaa, Finland). For the cell growth assays, various cancer cells at 2 × 10^3 cells/well were plated in 96-well culture plates. NOC-IBR1 and NOC-IBR2 were added to each well at various concentrations (200 μM, 100 μM, 50 μM, 25 μM, 12.5 μM, 6.25 μM, 3.16 μM, 1.56 μM, and 0.78 μM), and the cells were incubated for 72 h. […] Figure 4 The cytotoxicity of NOC-IBR1 and NOC-IBR2 was assessed across different cell lines. […] Cell growth was measured using the MTT colorimetric assay. […] Similarly, the IC50 values of doxorubicin in the above cell lines were also calculated (Table S4). […]

A549 = assay: cells; set-up: species or system Huh7, HeLa, U87MG, HaCaT; MTT colorimetric cell growth / viability assay; settings: Homo sapiens, A549, 72 h; read-out: NOC-IBR1 IC50
Method: (§1) Lung cancer cells (A549), liver cancer cells (Huh7), cervical cancer cells (HeLa), brain cancer cells (U87MG), and a normal cell line (human keratinocyte cell line (HaCaT)) were acquired from the Korean Cell Line Bank (Seoul, Republic of Korea). Ten percent fetal bovine serum (FBS) was added to Dulbecco’s modified Eagle’s medium (DMEM) to culture the HeLa A549 cells. Similarly, Huh7 cells were grown in DMEM obtained from Corning Cellgro Manassas, VA, USA. Glioblastoma U87MG cells were cultured in a minimum essential medium (MEM) supplemented with 10% FBS. DMEM supplemented with 10% FBS, 100 µg/mL streptomycin, and 100 µg/mL benzylpenicillin was used to grow HaCaT cell lines. Each cell line was kept in an incubator with 5% CO2 that was humidified at 37 °C (Thermo Scientific, Vantaa, Finland). For the cell growth assays, various cancer cells at 2 × 10^3 cells/well were plated in 96-well culture plates. NOC-IBR1 and NOC-IBR2 were added to each well at various concentrations (200 μM, 100 μM, 50 μM, 25 μM, 12.5 μM, 6.25 μM, 3.16 μM, 1.56 μM, and 0.78 μM), and the cells were incubated for 72 h. A 3-(4,5-dimethylthiazol-2-yl)-2,5-diphenyltetrazolium bromide (MTT) colorimetric assay was used to measure cell growth (cell viability).  Figure 4 The cytotoxicity of NOC-IBR1 and NOC-IBR2 was assessed across different cell lines. Each cell line was maintained in a 5% CO2 humidified incubator at 37 °C. The cells were seeded at a density of 2 × 10^3 cells/well in 96-well culture plates for the cell growth assay. Various concentrations of the compounds (200 μM, 100 μM, 50 μM, 25 μM, 12.5 μM, 6.25 μM, 3.16 μM, 1.56 μM, and 0.78 μM) were added to each well, and the cells were incubated for 72 h. Cell growth was measured using the MTT colorimetric assay. NOC-IBR1 and NOC-IBR2 were further subjected to cytotoxicity assays against four different cancer cell lines using a colorimetric test of 3-(4,5-dimethylthiazol-2-yl)-2,5-diphenyltetrazolium bromide (MTT) (Figure 4). […] Similarly, the IC50 values of doxorubicin in the above cell lines were also calculated (Table S4). […] These findings further indicate that NOC-IBR1 and NOC-IBR2 substantially reduce the viability of A549, Huh7, HeLa, and U87MG cells in a dose-dependent manner. This is the first report on the cytotoxicity of these two compounds against cancer cell lines.

U87MG = assay: cells; set-up: species or system A549, Huh7, HeLa, HaCaT; MTT colorimetric cell growth / viability assay; settings: Homo sapiens, U-87 MG, 72 h; read-out: NOC-IBR1 IC50
Method: as §1

Huh7 = assay: cells; set-up: species or system A549, HeLa, U87MG, HaCaT; MTT colorimetric cell growth / viability assay; settings: Homo sapiens, Huh-7, 72 h; read-out: NOC-IBR1 IC50
Method: as §1

HeLa = assay: cells; set-up: species or system A549, Huh7, U87MG, HaCaT; MTT colorimetric cell growth / viability assay; settings: Homo sapiens, HeLa, 72 h; read-out: NOC-IBR1 IC50
Method: as §1

COc1cc2c(c(O)c1O)C(=O)c1c(coc1C)C2 [NOC-IBR1, 6-methoxy-7,8-dihydroxy-1-methylnaphtho [2,3-c] furan-9-one]
Km (ThnM3; 2 mM SAM (saturating), read-out: apparent Km): 15.6 ± 1.75 µM | CC50 at 72 h (in vitro; read-out: NOC-IBR1 IC50 (μM), normal cells): > 200 µM | IC50 (A549): 200 µM | IC50 (U87MG): 120 µM | IC50 (Huh7): 44.4 µM | IC50 (HeLa): 61.1 µM

COc1cccc2c1C(=O)c1c(O)c3c(c(O)c1C2=O)C[C@@](O)(C(=O)CO)C[C@@H]3O[C@H]1C[C@H](N)[C@H](O)[C@H](C)O1 [Doxorubicin]
CC50 at 72 h (in vitro; read-out: Doxorubicin IC50 (μM), normal cells): 0.681 µM

C[S+](CC[C@H](N)C(=O)O)C[C@H]1O[C@@H](n2cnc3c(N)ncnc32)[C@H](O)[C@@H]1O (some centres unmarked) [SAM]
Km (ThnM3; methyl donor, 100 µM NOC-IBR1 (near-saturating), read-out: Km): 39.7 ± 6.08 µM
